Results: ChEMBL document CHEMBL3351864, “Beyond paraquats: dialkyl 3,3'- and 3,4'-bipyridinium amphiphiles as antibacterial agents” (2014)

Tests used:
Assay type in all cases: functional
Pseudomonas aeruginosa = assay: Antibacterial activity against Pseudomonas aeruginosa PAO1 WT after 72 hrs by broth microdilution method; settings: PAO1, 72 h
Escherichia coli = assay: Antibacterial activity against Escherichia coli MC4100 after 72 hrs by broth microdilution method; settings: MC4100, 72 h
Enterococcus faecalis = assay: Antibacterial activity against Enterococcus faecalis OG1RF after 72 hrs by broth microdilution method
Staphylococcus aureus = assay: Antibacterial activity against Staphylococcus aureus SH1000 after 72 hrs by broth microdilution method; settings: SH1000, 72 h

| SMILES | MIC (Pseudomonas aeruginosa) | MIC (Escherichia coli) | MIC (Enterococcus faecalis) | MIC (Staphylococcus aureus) |
| --- | --- | --- | --- | --- |
| CCCCCCCCCCCC[n+]1ccc(-c2ccc[n+](CCCCCCCCCCCC)c2)cc1 | 2 µM | 0.5 µM | 1 µM | 1 µM |
| CCCCCCCCCCCCCC[n+]1ccc(-c2ccc[n+](CCCCCCCCCCCCCC)c2)cc1 | 16 µM | 2 µM | 1 µM | 2 µM |
| CCCCCCCC[n+]1cccc(-c2ccc[n+](CCCCCCCC)c2)c1 | > 500 µM | 250 µM | 125 µM | 32 µM |
| CCCCCCCCCC[n+]1cccc(-c2ccc[n+](CCCCCCCCCC)c2)c1 | 8 µM | 2 µM | 2 µM | 2 µM |
| CCCCCCCCCCCC[n+]1cccc(-c2ccc[n+](CCCCCCCCCC)c2)c1 | 4 µM | 2 µM | 2 µM | 2 µM |
| CCCCCCCCCCC[n+]1cccc(-c2ccc[n+](CCCCCCCCCCC)c2)c1 | 2 µM | 1 µM | 1 µM | 0.5 µM |
| CCCCCCCCCCCC[n+]1cccc(-c2ccc[n+](CCCCCCCCCCCC)c2)c1 | 2 µM | 1 µM | 1 µM | 1 µM |
| CCCCCCCCCCCCCC[n+]1cccc(-c2ccc[n+](CCCCCCCCCCCC)c2)c1 | 8 µM | 2 µM | 1 µM | 2 µM |
| CCCCCCCCCCCCCC[n+]1cccc(-c2ccc[n+](CCCCCCCCCCCCCC)c2)c1 | 16 µM | 4 µM | 2 µM | 2 µM |
| CCCCCCCC[n+]1ccc(-c2ccc[n+](CCCCCCCC)c2)cc1 | > 500 µM | 125 µM | 125 µM | 125 µM |
| CCCCCCCCCCCCCCCC[n+]1ccc(-c2ccc[n+](CCCCCCCCCCCCCCCC)c2)cc1 | 63 µM | 16 µM | 4 µM | 2 µM |
| CCCCCCCCCCCC[N+](C)(C)Cc1ccccc1 [BENZODODECINIUM CHLORIDE] | 63 µM | 32 µM | 8 µM | 8 µM |

The remaining compounds from weak to strong by MIC (Pseudomonas aeruginosa), led by results:

| MIC (Pseudomonas aeruginosa) | MIC (Escherichia coli) | MIC (Enterococcus faecalis) | MIC (Staphylococcus aureus) | SMILES |
| --- | --- | --- | --- | --- |
| 250 µM | 63 µM | 63 µM | 8 µM | CCCCCCCCCCCC[n+]1cccc(-c2cccnc2)c1 |
| 250 µM | 125 µM | 125 µM | 125 µM | CCCCCCCCCCCC[n+]1cccc(-c2ccc[n+](C)c2)c1 |
| 250 µM | 32 µM | 63 µM | 8 µM | CCCCCCCCCCCC[n+]1cccc(-c2ccc[n+](Cc3ccccc3)c2)c1 |
| 16 µM | 8 µM | 1 µM | 2 µM | CCCCCCCCCCCCCCCC[n+]1cccc(-c2ccc[n+](CCCCCCCCCCCCCCCC)c2)c1 |
| 16 µM | 2 µM | 2 µM | 2 µM | CCCCCCCCCC[n+]1ccc(-c2ccc[n+](CCCCCCCCCC)c2)cc1 |
| 1 µM | 0.5 µM | 0.5 µM | 0.5 µM | CCCCCCCCCCC[n+]1ccc(-c2ccc[n+](CCCCCCCCCCC)c2)cc1 |
